We go through 16 compounds from US20240217990A1 (Gilead Sciences, Inc., priority 2021, published 2024).

SMILES strings stand for the structures.

The target of experiment [1] is T1, TLR7 (Homo sapiens, UniProt Q9NYK1).
T1 construct: Human peripheral blood mononuclear cells (PBMCs) consist of lymphocytes, monocytes and dendritic cells that express TLR7, TLR8 and TLR9; endogenous in cells; host or cells: cryopreserved human PBMCs from healthy donors
T1 sequence (Q9NYK1 27-1049): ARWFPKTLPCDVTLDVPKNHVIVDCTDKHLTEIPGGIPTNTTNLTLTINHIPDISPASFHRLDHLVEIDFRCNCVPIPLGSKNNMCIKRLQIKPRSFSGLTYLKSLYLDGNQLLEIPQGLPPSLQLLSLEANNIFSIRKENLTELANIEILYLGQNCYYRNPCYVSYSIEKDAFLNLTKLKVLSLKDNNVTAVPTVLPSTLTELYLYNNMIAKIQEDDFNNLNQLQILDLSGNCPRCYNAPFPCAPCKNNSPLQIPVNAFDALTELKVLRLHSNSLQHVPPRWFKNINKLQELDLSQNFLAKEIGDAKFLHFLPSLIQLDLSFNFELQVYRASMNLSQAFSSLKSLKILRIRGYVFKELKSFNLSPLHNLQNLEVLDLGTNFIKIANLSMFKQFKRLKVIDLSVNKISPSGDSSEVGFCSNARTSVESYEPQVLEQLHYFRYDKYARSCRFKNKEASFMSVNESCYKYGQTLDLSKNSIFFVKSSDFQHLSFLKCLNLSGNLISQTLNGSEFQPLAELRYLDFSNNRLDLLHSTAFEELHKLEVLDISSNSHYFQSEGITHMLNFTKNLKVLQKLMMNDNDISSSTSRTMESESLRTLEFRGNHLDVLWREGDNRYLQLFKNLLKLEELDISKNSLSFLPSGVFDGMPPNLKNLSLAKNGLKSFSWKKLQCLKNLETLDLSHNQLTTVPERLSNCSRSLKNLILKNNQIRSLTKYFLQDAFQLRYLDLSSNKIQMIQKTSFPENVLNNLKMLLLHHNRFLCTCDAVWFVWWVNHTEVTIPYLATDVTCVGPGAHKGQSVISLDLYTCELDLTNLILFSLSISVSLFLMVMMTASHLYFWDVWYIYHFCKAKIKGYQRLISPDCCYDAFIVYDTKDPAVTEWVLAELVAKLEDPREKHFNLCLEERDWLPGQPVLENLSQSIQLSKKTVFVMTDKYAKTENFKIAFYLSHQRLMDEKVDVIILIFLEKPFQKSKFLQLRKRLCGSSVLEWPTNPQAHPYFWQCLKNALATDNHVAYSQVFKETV
Put plainly: TLR7 human PBMC cell-based assay (antagonist, GS-986 stimulated cytokine release). Conditions: human PBMCs; TLR7 agonist GS-986 400 nM, 6 hours; cytokines (IL-6 and IFNα) in supernatant; read-out: TLR-7 EC50. An excerpt: (§1) Human peripheral blood mononuclear cells (PBMCs) consist of lymphocytes, monocytes and dendritic cells that express TLR7, TLR8 and TLR9. These cells respond to TLR7, TLR8 and TLR9 ligand stimulation and produce cytokines and chemokines in vitro and in vivo. Human PBMCs are therefore suitable to be used in a cell-based assay to assess the in vitro potency of a TLR 7, 8, and/or 9 antagonist. The result is expected to be more translatable to the pharmacodynamics response in vivo than cell line-based assays.
Cryopreserved human PBMCs from healthy donors were thawed and resuspended in RPMI-1640 media with L-glutamine (Corning) supplemented with 10% Fetal Bovine Serum (Hyclone) and 1× Penicillin-Streptomycin (Corning). After counting, the cell density was adjusted to 2 million cells/ml and incubated for 1 hour at 37° C., 5% CO2 for recovery. Following the recovery, the cells were plated by adding 50 μl per well (100,000 cells) to 384-well cell culture plates (Greiner) containing 250 nl of test antagonists in 100% DMSO per well, in a 10 points dose response in quadruplicates. PBMCs were incubated in the presence of test antagonists for one hour at 37° C., 5% CO2 before being stimulated with a TLR7 or TLR9agonist. GS-986 (Gilead Sciences) was used as the TLR7 agonist at a final concentration of 400 nM. ODN-2216 (InvivoGen) was used as the TLR9 agonist at a final concentration of 3 μM. PBMCs were incubated in the presence of the test antagonist and the TLR7 (or TLR9) agonist for an additional 6 hours at 37° C., 5% CO2. At the end of the incubation, the cell culture plates were centrifuged at 500 g for 5 min, and the cell culture supernatant was collected. The level of cytokines (IL-6 and IFNα) in the supernatant was measured by electrochemiluminescence immunoassays (Mesoscale Discovery) following manufacturer's recommended protocols. The level of cytokine measured was plotted against the test antagonist concentration and fitted to a sigmoidal function to determine the EC50, which are shown below in Table 11.

Experiment [2] concerns the target T2, TLR8 (Homo sapiens, UniProt Q9NR97).
T2 construct: Human peripheral blood mononuclear cells (PBMCs) consist of lymphocytes, monocytes and dendritic cells that express TLR7, TLR8 and TLR9; endogenous in cells; host or cells: cryopreserved human PBMCs from healthy donors
T2 sequence (Q9NR97 27-1041): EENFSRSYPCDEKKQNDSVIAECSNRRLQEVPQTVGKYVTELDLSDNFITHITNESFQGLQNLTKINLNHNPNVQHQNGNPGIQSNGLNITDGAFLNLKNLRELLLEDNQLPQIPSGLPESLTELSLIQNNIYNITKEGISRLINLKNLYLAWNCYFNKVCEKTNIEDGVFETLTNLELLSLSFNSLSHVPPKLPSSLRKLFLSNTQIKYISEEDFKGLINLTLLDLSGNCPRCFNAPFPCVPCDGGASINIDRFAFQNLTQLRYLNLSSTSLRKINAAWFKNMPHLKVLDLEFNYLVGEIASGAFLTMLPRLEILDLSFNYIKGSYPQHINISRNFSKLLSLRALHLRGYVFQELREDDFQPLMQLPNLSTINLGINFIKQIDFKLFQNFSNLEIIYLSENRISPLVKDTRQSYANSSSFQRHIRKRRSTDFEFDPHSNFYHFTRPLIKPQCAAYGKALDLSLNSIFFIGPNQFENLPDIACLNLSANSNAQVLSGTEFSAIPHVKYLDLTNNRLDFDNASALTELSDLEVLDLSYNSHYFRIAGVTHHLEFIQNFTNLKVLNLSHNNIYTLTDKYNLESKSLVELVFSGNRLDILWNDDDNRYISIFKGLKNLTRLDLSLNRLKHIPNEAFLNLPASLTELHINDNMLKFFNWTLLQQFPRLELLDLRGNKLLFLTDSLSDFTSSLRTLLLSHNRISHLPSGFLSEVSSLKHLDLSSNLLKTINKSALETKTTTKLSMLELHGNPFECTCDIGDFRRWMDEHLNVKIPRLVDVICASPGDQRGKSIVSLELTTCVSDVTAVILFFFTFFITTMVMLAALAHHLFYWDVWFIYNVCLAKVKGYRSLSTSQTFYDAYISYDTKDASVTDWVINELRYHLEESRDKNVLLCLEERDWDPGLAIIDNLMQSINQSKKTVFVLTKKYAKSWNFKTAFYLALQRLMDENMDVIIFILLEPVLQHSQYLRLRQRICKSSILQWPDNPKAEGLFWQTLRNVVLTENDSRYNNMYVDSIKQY
Put plainly: TLR8 human PBMC cell-based assay (antagonist, Compound A stimulated cytokine release). The following applies: human PBMCs; TLR8 agonist Compound A 800 nM, 6 hours; cytokines (TNFa and IL 12p40) in supernatant; read-out: TLR-8 EC50.
Text: as §1
Cryopreserved human PBMCs from healthy donors were thawed and resuspended in RPMI-1640 media with L-glutamine (Corning) supplemented with 10% Fetal Bovine Serum (Hyclone) and 1X Penicillin-Streptomycin (Corning). After counting, the cell density was adjusted to 2 million cells/ml and incubated for 1 hour at 37° C., 5% CO2 for recovery. Following the recovery, the cells were plated by adding 50 μl per well (100,000 cells) to 384-well cell culture plates (Greiner) containing 250 nl of test antagonists in 100% DMSO per well, in a 10 points dose response in quadruplicates. PBMCs were incubated in the presence of antagonists for one hour at 37° C., 5% CO2 before being stimulated with TLR8 agonist. Compound A (Gilead Sciences, U.S. Pat. No. 10,285,990) was used as the TLR8 agonist at a final concentration of 800 nM. PBMCs were incubated in the presence of antagonist and the TLR8 agonist for an additional 6 hours at 37° C., 5% CO2. At the end of the incubation, the cell culture plates were centrifuged at 500 g for 5 min, and the cell culture supernatant was collected. The level of cytokines (TNFa and IL 12p40) in the supernatant was measured by electrochemiluminescence immunoassays (Mesoscale Discovery) following manufacturer's recommended protocols. The level of cytokine measured was plotted against the antagonist concentration and fitted to a sigmoidal function to determine the EC50, which are shown below in Table 11.

For `Cc1cc(-c2[nH]c3cc(C(=O)N4CCNCC4)sc3c2C(C)C)cn2ncnc12` [Example 38, [6-isopropyl-5-(8-methyl-[1,2,4]triazolo[1,5-a]pyridin-6-yl)-4H-thieno[3,2-b]pyrrol-2-yl]-piperazin-1-yl-methanone], the EC50 in experiment [1] amounted to 3.5 nM; in experiment [2], 3.4 nM.

Consider `Cc1cc(-c2[nH]c3cc(C(=O)N(C)[C@H]4CCNC4)sc3c2C(C)C)cn2ncnc12` [Example 39], for which the results for the EC50 in experiment [1] and in experiment [2] were 0.6 nM and 11.2 nM, respectively.

Regarding `Cc1cc(-c2[nH]c3cc(C(=O)N4CCNC(=O)C4)sc3c2C(C)C)cn2ncnc12` [Example 40, 4-[6-isopropyl-5-(8-methyl-[1,2,4]triazolo[1,5-a]pyridin-6-yl)-4H-thieno[3,2-b]pyrrole-2-carbonyl]piperazin-2-one], the results for the EC50 in experiment [1] and in experiment [2] were 17.8 nM and 115 nM, respectively.

Take `Cc1cc(-c2[nH]c3cc(C(=O)N4CCN(C)CC4)sc3c2C(C)C)cn2ncnc12` [Example 43]: the values for the 50% effective concentration (EC50) in experiment [1] and in experiment [2] were 6.4 nM and 2.6 nM, respectively.

For the compound `Cc1cc(-c2[nH]c3cc(C(=O)N4CCC(O)CC4)sc3c2C(C)C)cn2ncnc12` [Example 44], the figures for the EC50 in experiment [1] and in experiment [2] were 46.1 nM and 41.2 nM, respectively.

As to `Cc1cc(-c2[nH]c3cc(C(=O)N4CCN(CCO)CC4)sc3c2C(C)C)cc(C)n1` [Example 45], the values for the EC50 in experiment [1] and in experiment [2] were 355 nM and 31.7 nM, respectively.

For `Cc1cc(-c2[nH]c3cc(-c4nc(C5CCNCC5)no4)sc3c2C(C)C)cn2ncnc12` [Example 46, 5-(6-isopropyl-5-(8-methyl-[1,2,4]triazolo[1,5-a]pyridin-6-yl)-4H-thieno[3,2-b]pyrrol-2-yl)-3-(piperidin-4-yl)-1,2,4-oxadiazole], the figures for the EC50 in experiment [1] and in experiment [2] were 0.1 nM and 3.8 nM, respectively.

For the compound `CCc1c(-c2cc(C)c3ncnn3c2)[nH]c2cc(-c3nc(N4CCNCC4)no3)sc12` [Example 47], the EC50 came to 0.6 nM in experiment [1] and 2.1 nM in experiment [2].

Take `Cc1cc(-c2[nH]c3cc(-c4nnc(C5CCNCC5)s4)sc3c2C(C)C)cn2ncnc12` [Example 48, 6-isopropyl-5-(8-methyl-[1,2,4]triazolo[1,5-a]pyridin-6-yl)-2-(5-(piperidin-4-yl)-1,3,4-thiadiazol-2-yl)-4H-thieno[3,2-b]pyrrole]: the results for the EC50 in experiment [1] and in experiment [2] were 1 nM and 5.4 nM, respectively.

Consider `Cc1cc(-c2[nH]c3cc(-c4nnc(N5CCNCC5)s4)sc3c2C(C)C)cn2ncnc12` [Example 49], for which the EC50 in experiment [1] came out at 0.4 nM; in experiment [2], 3.2 nM.

As to `Cc1cc(-c2[nH]c3cc(C4=NC5(CCNCC5)CO4)sc3c2C(C)C)cn2ncnc12` [Example 50, 2-(6-isopropyl-5-(8-methyl-[1,2,4]triazolo[1,5-a]pyridin-6-yl)-4H-thieno[3,2-b]pyrrol-2-yl)-3-oxa-1,8-diazaspiro[4.5]dec-1-ene], the EC50 in experiment [1] was determined as 0.2 nM; in experiment [2], 4.6 nM.

As to `Cc1cc(-c2[nH]c3cc(-c4ccc(N5CCNCC5)nc4)sc3c2C(C)C)cc(C)n1` [Example 51, 5-(2,6-dimethyl-4-pyridyl)-6-isopropyl-2-(6-piperazin-1-yl-3-pyridyl)-4F1-thieno[3,2-b]pyrrole], the EC50 in experiment [1] was 20.9 nM; in experiment [2], 61.4 nM.

On to `Cc1cc(-c2[nH]c3cc(-c4nnc(C5CCNCC5)o4)sc3c2C(C)C)cc(C)n1` [Example 52, 2-[5-(2,6-dimethyl-4-pyridyl)-6-isopropyl-4H-thieno[3,2-b]pyrrol-2-yl]-5-(4-piperidyl)-1,3,4-oxadiazole], for which the EC50 stood at 36.6 nM in experiment [1] and 16 nM in experiment [2].

For the compound `Cc1cc(-c2[nH]c3cc(-c4nnc(N5CCNCC5)o4)sc3c2C(C)C)cc(C)n1` [Example 53], the EC50 in experiment [1] was 74.7 nM; in experiment [2], 16 nM.

On to `Cc1cc(-c2[nH]c3cc(-c4nc(N5CCNCC5)no4)sc3c2C(C)C)cc(C)n1` [Example 54, 5-[5-(2,6-dimethyl-4-pyridyl)-6-isopropyl-4H-thieno[3,2-b]pyrrol-2-yl]-3-piperazin-1-yl-1,2,4-oxadiazole], for which the EC50 in experiment [1] was 3.7 nM; in experiment [2] it was 7 nM.

For `Cc1cc(-c2[nH]c3cc(-c4nc(C5CCNCC5)no4)sc3c2C(C)C)cc(C)n1` [Example 55], the EC50 turned out to be 7.6 nM in experiment [1] and 14.9 nM in experiment [2].
